Measurements taken from patent US6602905B1, “N-acyl homoserine lactones for the treatment of cardiac tachyarrhythmias, ischaemic heart disease or congestive heart failure” (The University of Nottingham, priority 1999, dated 2003).

Columns and labels:
Male rats (Long Evans) [1] = assay: Cardiovascular variables in conscious, freely moving instrumented rats after intravenous injection; format: in vivo, rat; details: vs vehicle; for effect on the heart rate / effect on the mean arterial blood pressure: 10 mg per kg body weight i.v. in acetonitrile/dextrose
Experimental: (§1) Male rats (Long Evans) of body mass in the range of from 350 to 450 g were used in the experiments.
(§2) The rats were instrumented with probes to monitor blood flow in renal, mesenteric and hindquarters vascular beds and with catheters to measure blood pressure and heart rate and to administer substances intravenously.
(§3) Measurements of the cardiovascular variables were made in the test rats which were conscious and able to move freely during the duration of the test procedure (10 minutes). The raw data were sampled (every 2 ms), averages were calculated (per cardiac cycle) and the data was stored to diskette (every 5 s). The stored data was analysed off line.
The following substances were administered by intravenous injection to the test rats.
1) vehicle only (100 μl of 50:50 acetonitrile:dextrose)
2) 10 mg per kg body weight of N-(3-oxododecanoyl)homoserine lactone (OdDHL; Formula I; n=2, Y=X=O, R=3-oxododecanoyl). The OdDHL was dissolved in acetonitrile/dextrose (50 μl:50 μl) 100 μl.
3) vehicle only (100 μl of 50:50 acetonitrile:dextrose)
4) 10 mg per kg body weight of N-(3-oxoundecanoyl)homoserine lactone (OuDHL; Formula I; n=2, Y=X=O, R=3-oxoundecanoyl).
The OuDHL was dissolved in acetonitrile/dextrose (50 μl:50 μl) 100 μl.

Male rats (Long Evans) [2] = assay: Cardiovascular variables in conscious rats after cardiac autonomic blockade with atenolol + atropine; format: in vivo, rat; details: 10 mg per kg i.v. after earlier administration of atenolol and atropine
Experimental: as §1, §2, §3
The following substances were administered intravenously to the test rats.
1) As in 2) in Experiment I above (∘)
2) Atenolol +atropine then as in 2) in Experiment I above (●).

CCCCCCCCC(=O)CC(=O)NC1CCOC1=O (stereo not drawn) [OuDHL, N-(3-oxoundecanoyl)homoserine lactone]
effect on the heart rate (Male rats (Long Evans) [1]): marked bradycardia
effect on the mean arterial blood pressure (Male rats (Long Evans) [1]): substantially no change

CCCCCCCCCC(=O)CC(=O)N[C@H]1CCOC1=O [OdDHL, N-(3-oxododecanoyl)homoserine lactone]
bradycardia (heart rate) after cardiac autonomic blockade (Male rats (Long Evans) [2]): not observed
effect on the heart rate (Male rats (Long Evans) [1]): profound bradycardia
effect on the mean arterial blood pressure (Male rats (Long Evans) [1]): substantially no change
blood flow, particularly in the mesenteric and hindquarters (Male rats (Long Evans) [1]; 10 mg per kg body weight i.v.): reduced
